Results published in US20240174618A1, “SUBSTITUTED (2-HETEROARYLOXYPHENYL)SULFONATES, SALTS THEREOF AND THEIR USE AS HERBICIDAL AGENTS” (Bayer Aktiengesellschaft, priority 2021, published 2024).

Key:
Assay type in all cases: in vivo
Kochia scoparia (KCHSC) = test: A. Herbicidal pre-emergence efficacy, KCHSC
Procedure, shortened: (§1)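 Applied before emergence onto covering soil at rates of 1280 g/ha or less, using 600 L/ha spray water with 0.5% additive. Scoring: visual % efficacy after ~3 weeks, greenhouse.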

Stellaria media (STEME) = test: A. Herbicidal pre-emergence efficacy, STEME
Procedure, shortened: as §1

Poa annua (POAAN) = test: B. Herbicidal post-emergence efficacy, POAAN
Procedure, shortened: (§2)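 Weeds grown in sandy loam in greenhouse and sprayed at the one-leaf stage, 2–3 weeks after sowing, with WP or EC formulations plus 0.5% additive at 600 L/ha water. Injury rated visually versus untreated controls after about 3 weeks (100% = dead, 0% = like control); rates up to 1280 g/ha.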

Setaria viridis (SETVI) = test: B. Herbicidal post-emergence efficacy, SETVI
Procedure, shortened: as §2

Veronica persica (VERPE) = test: B. Herbicidal post-emergence efficacy, VERPE
Procedure, shortened: as §2

Viola tricolor (VIOTR) [1] = test: C. Herbicidal pre-emergence efficacy, VIOTR
Procedure, shortened: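 Pre-emergence test: formulated compounds sprayed as aqueous suspension or emulsion with 0.5% additive at 600 l/ha onto soil covering sown seeds, at rates corresponding to 320 g/ha or less. After about 3 weeks in greenhouse, efficacy scored visually as percent versus untreated controls (100% = plants dead).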

[2] = system: Echinochloa crus-galli (ECHCG); test: E. Herbicidal post-emergence efficacy, ECHCG
Procedure, shortened: (§3)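 Compounds applied at 320 g/ha or less as a foliar spray (600 l/ha, 0.5% additive) to one-leaf-stage greenhouse plants grown in sandy loam. Damage is visually scored in percent relative to untreated plants after about 3 weeks.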

Viola tricolor (VIOTR) [3] = test: E. Herbicidal post-emergence efficacy, VIOTR
Procedure, shortened: as §3

[4] = pre-emergence, dosage 1280 g/ha
[5] = 80 g/ha, scored visually after about 3 weeks vs untreated controls

| Compound | Pre-emergence efficacy against KCHSC (Kochia scoparia (KCHSC); pre-emergence, dosage 320 g/ha) | Pre-emergence efficacy against KCHSC (Kochia scoparia (KCHSC); [4]) | Pre-emergence efficacy against STEME (Stellaria media (STEME); dosage 320 g/ha) | Pre-emergence efficacy against STEME (Stellaria media (STEME); dosage 1280 g/ha) | Post-emergence efficacy against POAAN (Poa annua (POAAN); 320 g/ha) | Post-emergence efficacy against POAAN (Poa annua (POAAN); 1280 g/ha) | Post-emergence efficacy against SETVI (Setaria viridis (SETVI); 320 g/ha) | Post-emergence efficacy against SETVI (Setaria viridis (SETVI); 1280 g/ha) | Post-emergence efficacy against VERPE (Veronica persica (VERPE); 80 g/ha) | Post-emergence efficacy against VERPE (Veronica persica (VERPE); 320 g/ha) | Post-emergence efficacy against VERPE (Veronica persica (VERPE); 1280 g/ha) | Pre-emergence efficacy against VIOTR in % (Viola tricolor (VIOTR) [1]; application rate 320 g/ha) | Post-emergence efficacy against ECHCG in % ([2]; application rate 80 g/ha) | Post-emergence efficacy against ECHCG in % ([2]; application rate 320 g/ha) | Post-emergence efficacy against VIOTR in % (Viola tricolor (VIOTR) [3]; application rate 320 g/ha) | Post-emergence efficacy against POAAN (Poa annua (POAAN); 80 g/ha) | Pre-emergence efficacy against VIOTR in % (Viola tricolor (VIOTR) [1]; application rate 80 g/ha) | Post-emergence efficacy against VIOTR in % (Viola tricolor (VIOTR) [3]; application rate 80 g/ha) | Pre-emergence efficacy against KCHSC (Kochia scoparia (KCHSC); [5]) | Pre-emergence efficacy against STEME (Stellaria media (STEME); dosage 80 g/ha) |
| --- | --- | --- | --- | --- | --- | --- | --- | --- | --- | --- | --- | --- | --- | --- | --- | --- | --- | --- | --- | --- |
| O=S(=O)(CCC1CC1)Oc1c(F)cccc1Oc1ncc(Cl)cn1 [Example I-55] | 100% | 100% | 100% | 100% | 90% | 90% | 90% | 90% | 90% | 90% | 90% | 100% | 90% | 100% | 80% | – | – | – | – | – |
| O=S(=O)(CCC(F)(F)F)Oc1c(Cl)cccc1Oc1ncc(Br)cn1 [Example I-32] | 90% | 100% | 90% | 90% | 100% | 100% | 90% | 100% | 100% | 100% | 100% | 100% | – | 90% | 100% | 90% | 100% | 100% | – | – |
| O=S(=O)(CCCC(F)(F)C(F)(F)F)Oc1c(F)cccc1Oc1ncc(Cl)cn1 [Example I-68] | 100% | 100% | 100% | 100% | 90% | 100% | 90% | 90% | 100% | 100% | 100% | 100% | – | 90% | 100% | – | 100% | 100% | 90% | – |
| O=S(=O)(CCCC(F)(F)F)Oc1c(Cl)cccc1Oc1ncc(Cl)cn1 [Example I-39] | 100% | 100% | 100% | 100% | 90% | 90% | 90% | 90% | 90% | 90% | 90% | 100% | 90% | 100% | 100% | – | 100% | 100% | 100% | – |
| O=S(=O)(CCCC(F)(F)F)Oc1c(Cl)cccc1Oc1ncc(Br)cn1 [Example I-34] | – | 90% | 90% | 90% | 100% | 100% | – | 90% | 100% | 100% | 100% | 100% | – | 90% | 100% | – | 100% | 100% | – | – |
| O=S(=O)(CCC(F)(F)F)Oc1c(F)cccc1Oc1ncc(Cl)cn1 [Example I-48] | 100% | 100% | 100% | 100% | 90% | 90% | 90% | 90% | – | 90% | 90% | 100% | 100% | 100% | 100% | 90% | 100% | 100% | 100% | 90% |
| O=S(=O)(CC1CC1)Oc1ccccc1Oc1ncc(Cl)cn1 [Example I-23] | 100% | 100% | 100% | 100% | 90% | 100% | – | 100% | 90% | 100% | 100% | 100% | – | 100% | 100% | 90% | 100% | 100% | 90% | 100% |
| O=S(=O)(CCCC(F)(F)F)Oc1c(F)cccc1Oc1ncc(Cl)cn1 [Example I-49] | 100% | 100% | 100% | 100% | – | 90% | 90% | 90% | – | – | 90% | 100% | 100% | 100% | 100% | – | 100% | 100% | 100% | 100% |
| Cc1cccc(Oc2ncc(Cl)cn2)c1OS(=O)(=O)CC1CC(F)(F)C1 [Example I-74] | 90% | 100% | 90% | 100% | 100% | 100% | – | 100% | 100% | 100% | 100% | 100% | – | 100% | 100% | 90% | 100% | 100% | – | – |
| O=S(=O)(CCCCl)Oc1ccccc1Oc1ncc(Cl)cn1 [Example I-2] | 100% | 100% | 100% | 100% | 100% | 100% | 100% | 100% | 100% | 100% | 100% | 100% | – | 100% | 100% | 90% | 100% | – | 100% | 100% |
| Cc1cccc(OS(=O)(=O)CCCCl)c1Oc1ncc(Cl)cn1 [Example I-12] | 90% | 100% | 100% | 100% | – | 90% | – | 90% | – | – | 90% | 90% | – | 90% | 80% | – | – | – | – | – |
| O=S(=O)(CCC(F)(F)F)Oc1c(Cl)cccc1Oc1ncc(Cl)cn1 [Example I-38] | 100% | 100% | 100% | 100% | – | 90% | – | 90% | 90% | 90% | 90% | 100% | – | 100% | 100% | – | 100% | 100% | – | 100% |
| O=S(=O)(CCC(F)(F)F)Oc1ccccc1Oc1ncc(Cl)cn1 [Example I-8] | 100% | 100% | 100% | 100% | – | 90% | 90% | 90% | – | – | 90% | 90% | 90% | 90% | 100% | – | 90% | 80% | 100% | 100% |
